Columns and labels:
E-cadherin = test: qRT-PCR of E-cadherin mRNA in T24 cells; type: cell-based, human; settings: 2 hours treatment, extracts 30, MMC 8 μg/mL
From the text: […] The RNA was reverse transcribed. The expression of each target gene was normalized to the expression of hypoxanthine phosphoribosyltransferase 1 (HPRT1; geneID 3251) mRNA as the 2^−66 ΔCt method that presents the differences ( ) in the threshold cycle (Ct) between the target gene and the HPRT1 gene. ΔCt=Ct target gene—Ct HPRT1. Experiments were repeated 4 times (4 biological repeats), with two more technical repeats. The primers were as follows:

T24 cells [1] = test: Cell cycle analysis (PI staining, FACS); type: cell-based, human; settings: 24 hours, DQ 30, sCBD 30, MMC 8 μg/mL
Experimental: For cell cycle analysis, cells were seeded in 6-wells culture plates at a concentration of 5×10^5 cells per well in McCoy (for T24 cells). The following day, media was replaced with new media containing treatments or methanol control. Cells were then incubated for 24 h at 37° C. in a humidified 5% CO2, 95% air atmosphere. Following 24 h of incubation, media was replaced with new media containing treatment or methanol control. Cells from each well were then harvested and collected separately and centrifuged for 2 min at 900 g. The cell pellet was washed once with 1 mL of PBS and fixed with 70% cold ethanol at 4° C. for at least 1 h. The fixed cells were pelleted out and washed twice with 1 mL of PBS. The cell pellet was then stained by re-suspending in 250 μL of PI solution (50 μg/mL) containing RNase A (100 μg/mL) for 30 min in the dark. Following, 200 μL of PBS were added to each tube and cells were analyzed using FACS.
Cell proliferation assay—XTT assay was carried on T24 and HTB-9 cells. 1×10^4 cells/well were seeded in 96-well plates. […] MMC was used as a positive control. XTT reagent (2,3,-bis (2-methoxy-4-nitro-5-sulfophenyl)-5-[(phenylamino)-carbonyl]-2H-tetrazolium inner salt) was added for 2 h at 37° C. in a humidified atmosphere of 5% CO2 to 95% air. Absorbance was recorded by a Synergy 111 hybrid reader photometer (BioTek) at 490 nm with 650 nm of reference wavelength. Cell survival (% r, viability) was estimated using the equation: % cell survival=(A490−A650) of treatment/(A490−A650) of solvent control×100. A490 and A650 are the absorbencies of the XTT colorimetric reaction. […] Apoptosis assay and cell cycle analysis—T24 cells were treated with cannabis compounds or with methanol as vehicle control. The cell cycle was determined at 24 hours and apoptosis was determined at 48 hours following treatment. Staining and detection followed the manufacturer's instructions. […] Then 200 μL of PBS was added to each tube and the cells were analyzed using FACS.

T24 cells [2] = test: Apoptosis assay (Annexin V-FITC and PI, FACS); type: cell-based, human; settings: 48 hours
Experimental: Apoptosis assay and cell cycle analysis—T24 cells were treated with cannabis compounds or with methanol as a vehicle control. Cell cycle was determined at 24 h and apoptosis was determined at 48 h post-treatment. Staining and detection followed manufacturer instructions. Briefly, for the apoptosis assay, the MEBCYTO Apoptosis Kit with Annexin V-FITC and PI (MBL, Enco, 4700) was used. Cells were seeded in culture 6-wells plates, at density of 5×10^5 cells per well in McCoy's 5A (for T24 a cells) or in RPMI (for HTB-9 cells). The following day, media was replaced with new media containing treatment or methanol control. Cells were then incubated for 24 or 48 h at 37° C. in a humidified 5% CO2 95% air atmosphere. Following incubation, cells were harvested and collected separately. Tubes were centrifuged for 2 min at 900 g and cell pellets were resuspended and washed twice with 1 mL of PBS. The cells in each sample were resuspended in 85 μL of Annexin binding buffer. Cells were stained using 10 μL of Annexin V-FITC solution and 5 μL of propidium iodide (PI) working solution followed by 15 min incubation in the dark at room temperature. Then 400 μL of Annexin V binding buffer were added to each tube and flow cytometry was performed using a FORTESA flow cytometer (FACS). Cells were considered to be apoptotic if they were Annexin V+/PI− (early apoptotic) or Annexin V+/PI+ (late apoptotic). Live cells were defined as Annexin V−/PI−, and Annexin V−/PI+ as necrotic.
Cell proliferation assay—XTT assay was carried on T24 and HTB-9 cells. 1×10^4 cells/well were seeded in 96-well plates. […] MMC was used as a positive control. […] Absorbance was recorded by a Synergy 111 hybrid reader photometer (BioTek) at 490 nm with 650 nm of reference wavelength. […] The cell cycle was determined at 24 hours and apoptosis was determined at 48 hours following treatment. […] Then 200 μL of PBS was added to each tube and the cells were analyzed using FACS.

N-cadherin = test: qRT-PCR of N-cadherin mRNA in T24 cells; type: cell-based, human; settings: 2 hours treatment, 2 hours after washout
From the text: […] Cells were then harvested and total RNA was isolated. The RNA was reverse transcribed. The expression of each target gene was normalized to the expression of hypoxanthine phosphoribosyltransferase 1 (HPRT1; geneID 3251) mRNA as the 2^−66 ΔCt method that presents the differences ( ) in the threshold cycle (Ct) between the target gene and the HPRT1 gene. ΔCt=Ct target gene—Ct HPRT1. Experiments were repeated 4 times (4 biological repeats), with two more technical repeats. The primers were as follows:

T24 cells [3] = test: Transwell cell invasion assay; settings: MMC 4 μg/mL, positive control
From the text: A transwell assay, as described in [35], was used to determine cell invasion (n=3),

In the case of CO[C@@]12[C@H](COC(N)=O)C3=C(C(=O)C(C)=C(N)C3=O)N1C[C@@H]1N[C@@H]12 [MMC, Mitomycin-C], the E-cadherin expression (E-cadherin; 2 hours after washout) is reported as “reduced”, the E-cadherin expression (E-cadherin; 6 hours after washout) is reported as “significantly induced” and the G2/M-phase cells (T24 cells [1]) is reported as 28.1%. The S-phase cells (T24 cells [1]; vehicle control 19.6%) was 34.4%, the cell apoptosis (T24 cells [2]; CBC+THC 17.2+2.8, CBD 15, MMC 8 μg/mL, control 46.2%) was 79.6% and the cell necrosis (T24 cells [2]; DQ 30, sCBD 30, MMC 8 μg/mL, control 1.69%) was 25.13%. The N-cadherin expression (N-cadherin) was “slightly reduced” and the “reduction of cell invasion in comparison to control” value (T24 cells [3]) was 43.7±4.8%.

Reference: US20240041902A1, “COMPOSITIONS AND METHODS FOR THE TREATMENT OF UROTHELIAL CANCER” (The State of Israel, Ministry of Agriculture & Rural …, priority 2020, published 2024)
